Test results as given in PMC3083694, “Effects of Intermediates between Vitamins K2 and K3 on Mammalian DNA Polymerase Inhibition and Anti-Inflammatory Activity” (International Journal of Molecular Sciences, 2011).

What was measured:
T4 polynucleotide kinase = biological target: T1, T4 polynucleotide kinase (Enterobacteria phage T4, UniProt P06855); assay: DNA metabolic enzyme assay, T4 polynucleotide kinase; format: biochemical; conditions: other DNA metabolic enzyme; read-out: IC50 Value of MK-2, T4 polynucleotide kinase
T1 construct: purchased
Experimental: (§1) Pols from mammals, a fish (cherry salmon), an insect (fruit fly) and a plant (cauliflower) were purified, and prokaryotic pols and other DNA metabolic enzymes, such as T7 RNA polymerase, T4 polynucleotide kinase and bovine deoxyribonuclease I, were purchased as described in our previous report. The activities of all pols and other DNA metabolic enzymes were measured as described in previous reports.

[1] = biological target: T2, Fruit fly DNA polymerase ɛ (Drosophila melanogaster, UniProt Q9VCN1); assay: DNA polymerase activity assay, fruit fly pol ɛ; format: biochemical; conditions: insect pol; read-out: IC50 Value of MK-2, Fruit fly DNA polymerase ɛ
T2 construct: made in house
Experimental: as §1
(§2) The components of the pol assay were poly(dA)/oligo(dT)18 and dTTP as the DNA template-primer and 2′-deoxyribonucleoside 5′-triphosphate (dNTP) substrate, respectively. VK2, VK3, and their synthesized derivatives (i.e., MK-3, MK-2 and MK-1) were dissolved in dimethyl sulfoxide (DMSO) at various concentrations and sonicated for 30 s. The sonicated samples (4 μL) were mixed with 16 μL of each pol enzyme (final amount, 0.05 units) in 50 mM Tris-HCl (pH 7.5) containing 1 mM dithiothreitol, 50% glycerol and 0.1 mM EDTA, and kept at 0 °C for 10 min. […] Activity without the inhibitor was considered to be 100%, and the activity remaining at each concentration of inhibitor was determined relative to this value. […]

[2] = biological target: T3, Fruit fly DNA polymerase α (Drosophila melanogaster, UniProt P26019); assay: DNA polymerase activity assay, fruit fly pol α; format: biochemical; conditions: insect pol; read-out: IC50 Value of MK-2, Fruit fly DNA polymerase α
T3 construct: made in house
Experimental: as §1, §2

Mouse DNA polymerase ι = biological target: T4, Mouse DNA polymerase ι (Mus musculus, UniProt Q6R3M4); assay: DNA polymerase activity assay, mouse pol ι; format: biochemical; conditions: Y-family pol; read-out: IC50 Value of MK-2, Mouse DNA polymerase ι
T4 construct: made in house
Experimental: as §1, §2

E. coli DNA polymerase I = biological target: T5, E. coli DNA polymerase I (Escherichia coli, UniProt P00582); assay: DNA polymerase activity assay, E. coli pol I; format: biochemical; conditions: prokaryotic pol; read-out: IC50 Value of MK-2, E. coli DNA polymerase I
T5 construct: purchased
Experimental: as §1, §2

[3] = biological target: Cauliflower DNA polymerase α (Brassica oleracea var. botrytis, UniProt A0A0D3D890); assay: DNA polymerase activity assay, cauliflower pol α; format: biochemical; conditions: plant pol; read-out: IC50 Value of MK-2, Cauliflower DNA polymerase α
Experimental: as §1, §2

[4] = biological target: T6, Fruit fly DNA polymerase δ (Drosophila melanogaster, UniProt P54358); assay: DNA polymerase activity assay, fruit fly pol δ; format: biochemical; conditions: insect pol; read-out: IC50 Value of MK-2, Fruit fly DNA polymerase δ
T6 construct: made in house
Experimental: as §1, §2

Rat DNA polymerase β = biological target: T7, Rat DNA polymerase β (Rattus norvegicus, UniProt P06766); assay: DNA polymerase activity assay, rat pol β; format: biochemical; conditions: X-family pol; read-out: IC50 Value of MK-2, Rat DNA polymerase β
T7 construct: made in house
Experimental: as §1, §2

Taq DNA polymerase = biological target: T8, Taq DNA polymerase (Thermus aquaticus, UniProt P19821); assay: DNA polymerase activity assay, Taq pol; format: biochemical; conditions: prokaryotic pol; incubated at 74 °C; read-out: IC50 Value of MK-2, Taq DNA polymerase
T8 construct: purchased
Experimental: as §1, §2

Human DNA polymerase γ = biological target: T9, Human DNA polymerase γ (Homo sapiens, UniProt P54098); design: method as in PMID 18312466, PMID 18698499, PMID 20030669, PMID 20881898; conditions: earlier work of the authors; cited from earlier work
T9 construct: made in house
T9 sequence (P54098 1-1239): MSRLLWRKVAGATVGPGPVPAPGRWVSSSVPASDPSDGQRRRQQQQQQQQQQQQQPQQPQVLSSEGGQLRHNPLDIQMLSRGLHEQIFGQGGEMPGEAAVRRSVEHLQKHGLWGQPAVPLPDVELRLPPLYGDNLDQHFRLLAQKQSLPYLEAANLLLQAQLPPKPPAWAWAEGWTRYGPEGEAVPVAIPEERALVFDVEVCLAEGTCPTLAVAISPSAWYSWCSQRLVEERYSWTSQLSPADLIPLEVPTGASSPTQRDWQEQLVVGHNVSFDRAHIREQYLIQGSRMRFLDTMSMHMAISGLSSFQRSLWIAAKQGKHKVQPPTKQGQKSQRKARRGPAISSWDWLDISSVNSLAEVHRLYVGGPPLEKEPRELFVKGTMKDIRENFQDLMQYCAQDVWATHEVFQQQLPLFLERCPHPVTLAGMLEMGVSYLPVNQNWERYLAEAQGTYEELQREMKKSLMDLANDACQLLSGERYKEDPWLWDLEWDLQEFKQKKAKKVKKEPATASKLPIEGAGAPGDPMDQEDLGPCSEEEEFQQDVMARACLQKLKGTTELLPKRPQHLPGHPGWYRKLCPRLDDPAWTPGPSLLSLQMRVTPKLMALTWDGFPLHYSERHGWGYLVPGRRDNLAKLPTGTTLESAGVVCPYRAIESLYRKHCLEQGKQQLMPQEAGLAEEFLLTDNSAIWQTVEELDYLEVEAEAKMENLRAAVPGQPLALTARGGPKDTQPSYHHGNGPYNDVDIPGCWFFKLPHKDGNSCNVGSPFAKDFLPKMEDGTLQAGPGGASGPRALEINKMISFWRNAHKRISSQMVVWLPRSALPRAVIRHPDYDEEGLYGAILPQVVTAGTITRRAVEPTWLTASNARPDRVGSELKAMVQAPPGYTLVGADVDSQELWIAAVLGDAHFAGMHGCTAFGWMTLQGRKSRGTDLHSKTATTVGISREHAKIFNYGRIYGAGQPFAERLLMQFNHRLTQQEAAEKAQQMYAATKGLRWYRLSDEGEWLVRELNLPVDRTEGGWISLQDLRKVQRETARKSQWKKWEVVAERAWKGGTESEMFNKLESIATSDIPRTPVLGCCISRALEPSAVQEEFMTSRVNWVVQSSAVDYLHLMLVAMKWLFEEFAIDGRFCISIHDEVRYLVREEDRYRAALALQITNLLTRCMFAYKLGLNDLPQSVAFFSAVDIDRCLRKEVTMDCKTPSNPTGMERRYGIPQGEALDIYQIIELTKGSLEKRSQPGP

T8 sequence (P19821 whole entry): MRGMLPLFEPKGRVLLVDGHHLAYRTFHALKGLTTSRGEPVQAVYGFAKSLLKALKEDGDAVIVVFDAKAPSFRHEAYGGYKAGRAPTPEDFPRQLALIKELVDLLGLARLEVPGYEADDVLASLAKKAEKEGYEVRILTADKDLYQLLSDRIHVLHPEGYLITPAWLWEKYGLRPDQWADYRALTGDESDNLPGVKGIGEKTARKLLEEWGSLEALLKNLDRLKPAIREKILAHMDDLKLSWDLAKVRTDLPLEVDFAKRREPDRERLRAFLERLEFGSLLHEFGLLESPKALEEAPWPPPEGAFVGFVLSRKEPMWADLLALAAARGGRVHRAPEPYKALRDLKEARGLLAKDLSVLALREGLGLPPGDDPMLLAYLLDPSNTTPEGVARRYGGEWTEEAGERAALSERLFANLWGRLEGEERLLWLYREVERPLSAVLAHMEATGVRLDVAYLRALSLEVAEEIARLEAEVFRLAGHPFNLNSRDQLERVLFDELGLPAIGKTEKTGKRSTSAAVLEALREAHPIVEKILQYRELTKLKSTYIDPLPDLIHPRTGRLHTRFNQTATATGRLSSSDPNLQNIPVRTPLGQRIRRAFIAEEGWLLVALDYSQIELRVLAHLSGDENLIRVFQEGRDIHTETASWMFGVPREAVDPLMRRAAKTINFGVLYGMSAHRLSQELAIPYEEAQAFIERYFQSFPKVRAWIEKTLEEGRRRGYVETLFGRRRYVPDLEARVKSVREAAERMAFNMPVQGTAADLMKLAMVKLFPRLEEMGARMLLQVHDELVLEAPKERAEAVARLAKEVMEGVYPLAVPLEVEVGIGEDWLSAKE
T1 sequence (P06855 whole entry): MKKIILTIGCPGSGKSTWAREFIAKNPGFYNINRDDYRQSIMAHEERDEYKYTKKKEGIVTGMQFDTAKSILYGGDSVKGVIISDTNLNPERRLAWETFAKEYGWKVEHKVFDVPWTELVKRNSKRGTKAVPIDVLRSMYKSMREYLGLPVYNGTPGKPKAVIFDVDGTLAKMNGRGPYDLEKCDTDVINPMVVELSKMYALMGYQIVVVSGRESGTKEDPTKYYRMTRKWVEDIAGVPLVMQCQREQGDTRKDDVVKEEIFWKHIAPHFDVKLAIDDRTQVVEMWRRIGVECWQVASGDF
Cauliflower DNA polymerase α, sequence (A0A0D3D890 entry or part of it): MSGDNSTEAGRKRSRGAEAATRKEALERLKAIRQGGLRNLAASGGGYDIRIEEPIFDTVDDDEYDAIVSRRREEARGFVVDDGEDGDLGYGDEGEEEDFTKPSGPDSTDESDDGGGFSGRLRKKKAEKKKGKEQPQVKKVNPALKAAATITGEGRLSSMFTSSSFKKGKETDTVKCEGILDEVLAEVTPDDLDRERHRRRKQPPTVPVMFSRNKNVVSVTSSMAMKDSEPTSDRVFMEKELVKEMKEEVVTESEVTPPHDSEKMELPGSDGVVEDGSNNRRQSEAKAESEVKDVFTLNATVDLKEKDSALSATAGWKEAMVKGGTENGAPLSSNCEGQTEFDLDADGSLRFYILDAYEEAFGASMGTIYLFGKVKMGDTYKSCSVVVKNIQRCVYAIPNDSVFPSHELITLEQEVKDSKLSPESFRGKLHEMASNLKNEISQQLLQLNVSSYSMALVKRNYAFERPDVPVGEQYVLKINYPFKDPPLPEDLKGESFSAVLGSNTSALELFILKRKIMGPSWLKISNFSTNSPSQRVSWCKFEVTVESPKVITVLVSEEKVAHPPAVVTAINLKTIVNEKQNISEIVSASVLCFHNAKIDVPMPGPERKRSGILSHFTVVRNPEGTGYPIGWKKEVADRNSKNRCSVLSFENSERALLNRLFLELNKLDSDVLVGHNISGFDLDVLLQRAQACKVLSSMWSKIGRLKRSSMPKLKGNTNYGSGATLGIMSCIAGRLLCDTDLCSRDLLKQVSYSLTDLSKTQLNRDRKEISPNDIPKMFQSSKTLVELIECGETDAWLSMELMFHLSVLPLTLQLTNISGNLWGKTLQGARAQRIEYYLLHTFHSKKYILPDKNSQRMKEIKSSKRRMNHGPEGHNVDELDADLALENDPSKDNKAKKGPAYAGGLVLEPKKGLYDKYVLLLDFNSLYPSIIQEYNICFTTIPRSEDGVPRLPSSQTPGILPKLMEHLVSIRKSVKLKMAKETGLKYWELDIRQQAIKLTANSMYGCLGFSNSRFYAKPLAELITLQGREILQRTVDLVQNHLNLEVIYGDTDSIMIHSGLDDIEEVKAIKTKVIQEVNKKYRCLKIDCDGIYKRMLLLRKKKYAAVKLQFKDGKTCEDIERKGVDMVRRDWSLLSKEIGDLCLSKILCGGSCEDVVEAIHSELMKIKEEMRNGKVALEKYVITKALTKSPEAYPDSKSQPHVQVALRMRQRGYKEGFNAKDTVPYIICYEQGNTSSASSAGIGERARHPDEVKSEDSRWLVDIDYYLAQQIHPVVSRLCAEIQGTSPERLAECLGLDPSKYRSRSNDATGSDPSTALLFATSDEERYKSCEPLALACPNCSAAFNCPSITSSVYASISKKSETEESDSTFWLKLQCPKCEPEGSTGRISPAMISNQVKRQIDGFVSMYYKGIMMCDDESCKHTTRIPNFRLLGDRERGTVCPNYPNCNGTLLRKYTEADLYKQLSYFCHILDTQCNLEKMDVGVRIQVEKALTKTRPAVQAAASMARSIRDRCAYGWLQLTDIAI
T6 sequence (P54358 whole entry): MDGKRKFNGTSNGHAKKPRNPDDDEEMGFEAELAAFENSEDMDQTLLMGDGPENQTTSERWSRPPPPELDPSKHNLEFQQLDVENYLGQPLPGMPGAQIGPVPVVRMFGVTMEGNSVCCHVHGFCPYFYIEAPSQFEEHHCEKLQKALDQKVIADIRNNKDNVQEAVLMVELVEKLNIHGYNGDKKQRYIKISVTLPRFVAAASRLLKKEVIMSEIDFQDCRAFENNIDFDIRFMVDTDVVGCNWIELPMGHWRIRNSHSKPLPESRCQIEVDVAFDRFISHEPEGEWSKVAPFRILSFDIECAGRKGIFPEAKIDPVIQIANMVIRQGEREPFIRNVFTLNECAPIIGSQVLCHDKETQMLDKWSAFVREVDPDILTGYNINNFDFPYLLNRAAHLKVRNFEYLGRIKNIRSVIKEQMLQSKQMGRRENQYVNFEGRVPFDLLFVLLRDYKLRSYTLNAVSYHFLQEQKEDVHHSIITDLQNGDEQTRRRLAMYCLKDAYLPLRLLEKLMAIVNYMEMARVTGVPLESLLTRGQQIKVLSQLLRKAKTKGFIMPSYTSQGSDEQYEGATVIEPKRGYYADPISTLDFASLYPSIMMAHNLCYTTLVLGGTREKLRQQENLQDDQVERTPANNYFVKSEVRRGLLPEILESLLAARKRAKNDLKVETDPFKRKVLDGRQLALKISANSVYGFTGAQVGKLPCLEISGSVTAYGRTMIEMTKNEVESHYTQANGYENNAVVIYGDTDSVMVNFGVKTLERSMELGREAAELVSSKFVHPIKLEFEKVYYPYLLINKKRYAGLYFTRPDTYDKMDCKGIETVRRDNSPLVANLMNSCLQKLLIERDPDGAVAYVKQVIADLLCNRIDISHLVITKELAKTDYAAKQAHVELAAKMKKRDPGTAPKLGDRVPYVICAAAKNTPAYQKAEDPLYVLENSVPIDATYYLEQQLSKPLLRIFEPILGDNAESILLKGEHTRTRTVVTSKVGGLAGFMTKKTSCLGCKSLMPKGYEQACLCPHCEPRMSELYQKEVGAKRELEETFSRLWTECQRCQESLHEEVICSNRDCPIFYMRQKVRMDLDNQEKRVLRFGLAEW
T5 sequence (P00582 324-928): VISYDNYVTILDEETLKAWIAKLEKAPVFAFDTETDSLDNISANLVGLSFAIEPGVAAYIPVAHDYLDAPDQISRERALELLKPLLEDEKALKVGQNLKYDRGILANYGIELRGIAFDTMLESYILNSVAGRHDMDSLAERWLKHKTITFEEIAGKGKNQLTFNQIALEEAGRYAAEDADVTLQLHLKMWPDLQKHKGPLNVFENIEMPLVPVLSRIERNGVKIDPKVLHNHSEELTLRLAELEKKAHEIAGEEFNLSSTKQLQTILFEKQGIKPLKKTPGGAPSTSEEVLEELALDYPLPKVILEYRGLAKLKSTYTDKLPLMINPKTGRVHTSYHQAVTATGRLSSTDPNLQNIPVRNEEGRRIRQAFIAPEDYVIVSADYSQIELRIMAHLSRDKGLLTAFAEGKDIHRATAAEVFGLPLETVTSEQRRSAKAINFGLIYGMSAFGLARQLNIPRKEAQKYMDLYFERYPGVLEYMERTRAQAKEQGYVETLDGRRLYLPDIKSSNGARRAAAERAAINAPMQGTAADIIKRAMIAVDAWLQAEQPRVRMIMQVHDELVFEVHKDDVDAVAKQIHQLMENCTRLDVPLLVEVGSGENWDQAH

Row | Structure (SMILES) | IC50 (T4 polynucleotide kinase) [µM] | IC50 [1] [µM] | IC50 [2] [µM] | IC50 (Mouse DNA polymerase ι) [µM] | IC50 (E. coli DNA polymerase I) [µM] | IC50 [3] [µM] | IC50 [4] [µM] | IC50 (Rat DNA polymerase β) [µM] | IC50 (Taq DNA polymerase) [µM] | Inhibitor of human pol γ (Human DNA polymerase γ)
1 | CC(C)=CCC/C(C)=C/CC1=C(C)C(=O)c2ccccc2C1=O [MK-2] | > 200 | 36.7 ± 2.1 | 34 ± 2 | 39 ± 2.3 | > 200 | > 200 | 36.9 ± 2.2 | 31 ± 1.8 | > 200 | –
2 | CC(C)=CCC/C(C)=C/CC/C(C)=C/CC/C(C)=C/CC1=C(C)C(=O)c2ccccc2C1=O [MK-4, menaquinone 4, reference compound] | – | – | – | – | – | – | – | – | – | not
